Holding throughout (type): cell-based
The subject of experiment [1] is Candida Glabrata (ATCC 90030). As to the kind of experiment: Broth micro-dilution antifungal susceptibility test (MIC). To be noted: Nakaseomyces glabratus, ATCC90030, 48 h, 35° C. Here is the method: (§1) Trichophyton Rubrum (ATCC 28188, PBI International); Trichophyton Mentagrophytes (ATCC 9533, PBI International); Aspergillus Niger (ATCC 16404, PBI International); Scopulariopsis Brevicaulis (ATCC 36840, DSMZ); Candida Albicans (ATCC 90028, PBI International); Candida Glabrata (ATCC 90030, DSMZ).
(§2) Compounds' minimal inhibition concentration (MIC) was determined through broth micro-dilution susceptibility test using a method developed in agreement with the National Committee for Clinical Laboratory Standards (NCCLS) (National Committee for Clinical Laboratory Standards. Reference Method for Broth Dilution Antifungal Susceptibility Testing of Yeasts; Approved standard-Second Edition M27-A2. 2002; Vol. 22, No. 15) (National Committee for Clinical Laboratory Standards. Reference Method for Broth Dilution Antifungal Susceptibility Testing of Filamentous Fungi; Approved standard M38-A. 2002; Vol. 22, No. 16).
(§3) Assays were carried out in RPMI 1640 with L-glutamine medium buffered to pH 7 with 0.165M 3-(N-morpholino)propanesulfonic acid (MOPS) and 10M NaOH and supplemented with 18 g glucose/liter. The tests were performed using 96 well sterile plates (inoculum size of 1×10^5 CFU/mL). Compounds stock solutions were prepared at 12.8 mg/mL in 100% DMSO. A series of twofold dilutions were prepared in plate using RPMI 1640. Final concentrations ranged from 0.125 to 128 μg/mL at 1% DMSO.

In experiment [2] the test system is Trichophyton Mentagrophytes (ATCC 9533). The description is as above. To be noted: ATCC9533, 120 h, 35° C. Here is the method:
as §1, §2, §3

In experiment [3] the test system is Scopulariopsis Brevicaulis (ATCC 36840). The experiment is described as above. To be noted: ATCC36840, 120 h, 35° C. The procedure: as §1, §2, §3
In experiment [4] the test system is Aspergillus Niger (ATCC 16404). Described as above. To be noted: ATCC16404, 120 h, 35° C. The procedure:
as §1, §2, §3

Experiment [5] deals with Trichophyton Rubrum (ATCC 28188). The experiment is described as above. The note with it: ATCC28188, 120 h, 35° C. The procedure: as §1, §2, §3
In experiment [6] the test system is Candida Albicans (ATCC 90028). The experiment is described as above. The note with it: 35° C. The procedure:
as §1, §2, §3

The test system of experiment [7] is 6 strains tested, including yeasts, dermatophytes and molds. The experiment can be described thus: Antifungal spectrum over the 6 strains tested (MIC test). To be noted: 6 strains: yeasts. The procedure: as §1, §2, §3
Experiment [8] relates to Candida Glabrata (ATCC 90030). As to the kind of experiment: Assessment of the mechanism of action: antifungal activity with or without 100 μM Fe3+. The note with it: 100 μM FeCl3 in the test medium; OD at 540 nm. Here is the method:
To verify if the compounds mechanism of action is the chelation of iron ions, the MIC determination with Candida glabrata (ATCC 90030) strain was performed by the addition of excessive iron ions (100 μM FeCl3) in the test medium. The viability of cells exposed to drugs, with or without the metal ion Fe^3+, was evaluated by the OD measure at 540 nm.
Compounds described in Example 2, E8 and NiK-29298 were evaluated in presence and in absence of 100 μM (100 micromoles) Fe^3+.
In all figures, the lines and dots represent the percent inhibition of the fungal growth (in ordinate) by adding different concentrations of antifungal agents (in abscissa). Blue lines and dots are the experiments performed without iron supplementation, while red lines and dots represent the results of the experiments performed in presence of 100 μM Fe^3+. […] Conversely, Fe^3+ has no effect on amphotericin, an antifungal agent known in the art to have a mechanism of action different from that of ciclopirox.

[9] abbreviates: geometric means of two single experiments, Table 3.
Where [10] appears, read: geometric means of two single experiments, five days, Table 3, read-out: MIC Tricophyton Mentagrophytes ATCC 9533.
Where [11] appears, read: geometric means of two single experiments, five days, Table 3.
[12] abbreviates: geometric means of two single experiments, five days, Table 3, read-out: MIC Trycophyton Rubrum ATCC 28188.
The mark [13] stands for this setting: ATCC90028, geometric means of two single experiments, 48 h, Table 3.
Where [14] appears, read: comparison compounds, Table 5, five days, read-out: MIC Tricophyton Mentagrophytes ATCC 9533.
Where [15] appears, read: comparison compounds, Table 5, five days.
[16] abbreviates: comparison compounds, Table 5, five days, read-out: MIC Trycophyton Rubrum ATCC 28188.
[17] abbreviates: ATCC90028, comparison compounds, Table 5, 48 h.

These results are taken from patent publication US8729076B2, “Secondary 8-hydroxyquinoline-7-carboxamide derivatives” (Polichem SA, priority 2009, dated 2014).

In brackets after ≈: the same amount, converted by molar mass. Read-outs that look alike come from different tables or passages of the source. Where only a bound is given, the exact number is not on record here.

With `O=C(NCc1ccccn1)c1ccc2cccnc2c1O` [Example 1, 8-Hydroxy-N-(pyridin-2-ylmethyl)quinoline-7-carboxamide], the MIC in experiment [1] (setting [9]) was found to be 4 µg/mL (≈ 14.3 µM); in experiment [2] (setting [10]) it was 2 µg/mL (≈ 7.16 µM); in experiment [3] (setting [11]), 1 µg/mL (≈ 3.58 µM); in experiment [4] (setting [11]) it was 0.5 µg/mL (≈ 1.79 µM); in experiment [5] (setting [12]) it was 2 µg/mL (≈ 7.16 µM); in experiment [6] (setting [13]) it was 4 µg/mL (≈ 14.3 µM).

For the compound `O=C(NCc1ccc(Br)cc1)c1ccc2cccnc2c1O` [Example 2, 8-Hydroxy-N-(4-bromobenzyl)quinoline-7-carboxamide], the MIC amounted to 1.41 µg/mL (≈ 3.95 µM) in experiment [1] (setting [9]); 1 µg/mL (≈ 2.8 µM) in experiment [2] (setting [10]); 1.41 µg/mL (≈ 3.95 µM) in experiment [3] (setting [11]); 0.71 µg/mL (≈ 1.99 µM) in experiment [4] (setting [11]); 1.41 µg/mL (≈ 3.95 µM) in experiment [5] (setting [12]); 1.41 µg/mL (≈ 3.95 µM) in experiment [6] (setting [13]).

With `CN(C)c1ccc(CNC(=O)c2ccc3cccnc3c2O)cc1` [Example 4, 8-Hydroxy-N-(4-(dimethylamino)benzyl)quinoline-7-carboxamide], the MIC in experiment [1] (setting [9]) was 1.41 µg/mL (≈ 4.39 µM); in experiment [2] (setting [10]), 0.71 µg/mL (≈ 2.21 µM); in experiment [3] (setting [11]), 1 µg/mL (≈ 3.11 µM); in experiment [4] (setting [11]) it was 0.5 µg/mL (≈ 1.56 µM); in experiment [5] (setting [12]) it was 1 µg/mL (≈ 3.11 µM); in experiment [6] (setting [13]), 2.83 µg/mL (≈ 8.81 µM).

As for `O=C(Nc1ccc(-n2cncn2)cc1)c1ccc2cccnc2c1O` [Example 7, 8-Hydroxy-N-(4-(1H-1,2,4-triazol-1-yl)phenyl)quinoline-7-carboxamide], the MIC in experiment [1] (setting [9]) came to 2.83 µg/mL (≈ 8.54 µM); in experiment [2] (setting [10]) it was 2 µg/mL (≈ 6.04 µM); in experiment [3] (setting [11]), 1.26 µg/mL (≈ 3.8 µM); in experiment [4] (setting [11]), 1 µg/mL (≈ 3.02 µM); in experiment [5] (setting [12]) it was 2.52 µg/mL (≈ 7.61 µM); in experiment [6] (setting [13]), 2 µg/mL (≈ 6.04 µM).

Regarding `O=C(Nc1ccc2c(c1)OCCO2)c1ccc2cccnc2c1O` [Example 9, 8-Hydroxy-N-(2,3-dihydrobenzo[b][1,4]dioxin-6-yl)quinoline-7-carboxamide], the MIC in experiment [1] (setting [9]) amounted to 2 µg/mL (≈ 6.21 µM); in experiment [2] (setting [10]), 0.5 µg/mL (≈ 1.55 µM); in experiment [3] (setting [11]) it was 1 µg/mL (≈ 3.1 µM); in experiment [4] (setting [11]), 1 µg/mL (≈ 3.1 µM); in experiment [5] (setting [12]), 0.25 µg/mL (≈ 0.776 µM); in experiment [6] (setting [13]), 2 µg/mL (≈ 6.21 µM).

In the case of `O=C(NCc1ccc(N2CCOCC2)cc1)c1ccc2cccnc2c1O` [Example 10, 8-Hydroxy-N-(4-morpholinobenzyl)quinoline-7-carboxamide], the MIC in experiment [1] (setting [9]) came out at 2 µg/mL (≈ 5.5 µM); in experiment [2] (setting [10]), 0.5 µg/mL (≈ 1.38 µM); in experiment [3] (setting [11]) it was 4 µg/mL (≈ 11 µM); in experiment [4] (setting [11]) it was 0.5 µg/mL (≈ 1.38 µM); in experiment [5] (setting [12]), 1 µg/mL (≈ 2.75 µM); in experiment [6] (setting [13]) it was 4 µg/mL (≈ 11 µM).

As for `Cc1cc(CNC(=O)c2ccc3cccnc3c2O)no1` [Example 11, 8-Hydroxy-N-((5-methylisoxazol-3-yl)methyl)quinoline-7-carboxamide], the minimum inhibitory concentration (MIC) in experiment [1] (setting [9]) is 2 µg/mL (≈ 7.06 µM); in experiment [2] (setting [10]) it was 4 µg/mL (≈ 14.1 µM); in experiment [3] (setting [11]) it was 2.83 µg/mL (≈ 9.99 µM); in experiment [4] (setting [11]) it was 1 µg/mL (≈ 3.53 µM); in experiment [5] (setting [12]), 1 µg/mL (≈ 3.53 µM); in experiment [6] (setting [13]), 2 µg/mL (≈ 7.06 µM).

Consider `Cc1csc(CNC(=O)c2ccc3cccnc3c2O)n1` [Example 12, 8-Hydroxy-N-((4-methylthiazol-2-yl)methyl)quinoline-7-carboxamide], for which the MIC amounted to 2 µg/mL (≈ 6.68 µM) in experiment [1] (setting [9]); 2.83 µg/mL (≈ 9.45 µM) in experiment [2] (setting [10]); 1 µg/mL (≈ 3.34 µM) in experiment [3] (setting [11]); 1 µg/mL (≈ 3.34 µM) in experiment [4] (setting [11]); 1.41 µg/mL (≈ 4.71 µM) in experiment [5] (setting [12]); 2 µg/mL (≈ 6.68 µM) in experiment [6] (setting [13]).

Turning to `O=C(NCc1nc2ccccc2s1)c1ccc2cccnc2c1O` [Example 14, 8-Hydroxy-N-(benzo[d]thiazol-2-ylmethyl)quinoline-7-carboxamide], the minimum inhibitory concentration (MIC) in experiment [1] (setting [9]) turned out to be 2.83 µg/mL (≈ 8.44 µM); in experiment [2] (setting [10]), 1 µg/mL (≈ 2.98 µM); in experiment [3] (setting [11]), 1 µg/mL (≈ 2.98 µM); in experiment [4] (setting [11]), 0.5 µg/mL (≈ 1.49 µM); in experiment [5] (setting [12]) it was 2 µg/mL (≈ 5.96 µM); in experiment [6] (setting [13]) it was 2 µg/mL (≈ 5.96 µM).

As to `O=C(NCc1ccc(OCc2ccccc2)cc1)c1ccc2ncccc2c1` [Example E8, reference compound], the “Spectrum of antifungal activity on the strains tested” value in experiment [7] was “active only on yeasts”. In addition, in experiment [8], the “Effect of Fe3+ on antifungal activity” value is “not inhibited”. Further, the MIC is 1 µg/mL (≈ 2.71 µM) in experiment [1] (comparison compounds, Table 5); 75 µg/mL (≈ 204 µM) in experiment [2] (setting [14]); greater than 128 µg/mL in experiment [3] (setting [15]); 2 to 128 µg/mL (≈ 5.43 to 347 µM) in experiment [4] (setting [15]); greater than 128 µg/mL in experiment [5] (setting [16]); 1.41 µg/mL (≈ 3.83 µM) in experiment [6] (setting [17]).

Take `O=C(NCc1ccccc1)c1ccc2ncccc2c1` [NiK-29298, reference compound]: the “Spectrum of antifungal activity on the strains tested” value in experiment [7] is reported as “active only on yeasts”. The “Effect of Fe3+ on antifungal activity” value in experiment [8] is reported as “not inhibited”. The MIC in experiment [1] (comparison compounds, Table 5) is 5.65 µg/mL (≈ 21.5 µM); in experiment [2] (setting [14]), 128 µg/mL (≈ 488 µM); in experiment [3] (setting [15]), greater than 128 µg/mL; in experiment [4] (setting [15]) it was 64 to 128 µg/mL (≈ 244 to 488 µM); in experiment [5] (setting [16]) it was greater than 128 µg/mL; in experiment [6] (setting [17]), 2 µg/mL (≈ 7.62 µM).

With `C[C@@H]1[C@H](O)[C@@H](C)/C=C/C=C/C=C/C=C/C=C/C=C/C=C/[C@H](O[C@@H]2O[C@H](C)[C@@H](O)[C@H](N)[C@@H]2O)C[C@@H]2O[C@](O)(C[C@@H](O)C[C@@H](O)[C@H](O)CC[C@@H](O)C[C@@H](O)CC(=O)O[C@H]1C)C[C@H](O)[C@H]2C(=O)O` [amphotericin], the “Effect of Fe3+ on antifungal activity” value in experiment [8] is “no effect”.

Take `Cc1cc(C2CCCCC2)n(O)c(=O)c1` [ciclopirox]: the “Effect of Fe3+ on antifungal activity” value in experiment [8] is “completely inhibited”.
